In series [1] the target is HDAC6 human recombinant enzyme (Homo sapiens (Human), UniProt Q9UBN7). Put plainly: Histone Deacetylase Assay (BPS Biosciences), HDAC6. It counts as biochemical. The source says: Histone Deacetylase Assay (BPS Biosciences)
Histone deacetylase assay was done as per manufacturer's instructions.

A further series deals with MM1S. Put plainly: Anticancer activity: Alamar Blue assay, MM1S. It counts as cell-based. The following applies: Homo sapiens, MM1.S, read-out: MM1S EC50. For orientation: Resazurin is reduced to fluorescent resorufin, in cell work by metabolically active cells.
The next series concerns the target LSD1 (Homo sapiens (Human), UniProt O60341). Put plainly: TR-FRET Assay for LSD1. The following applies: read-out: LSD1 IC50. (Time-resolved FRET reads energy transfer from a long-lived donor to a nearby acceptor.)
The nature of series [2]: Metabolic stability in liver microsomes, HLM. To be noted: 1 μM, NADPH.
Protocol: (§1) The microsomal suspension was prepared by adding liver microsomes to 100 mM potassium phosphate buffer (pH7.4) to give a final protein concentration of 0.5 mg/mL. The stock solution of NCE (10 mM in DMSO) was added to the microsomes to provide a final concentration of 1 μM. […] Samples were vortexed and centrifuged at 5,000 rpm for 10 min to remove proteins. Supernatant were analyzed on LC-MS/MS.
A short description of series [3]: Metabolic stability in liver microsomes, MLM. To be noted: 1 μM, NADPH. A general note: Liver microsomes are a subcellular fraction often used to study metabolism.
Protocol: as §1

Where a name gives a salt, the structure may show the parent alone. Read-outs that look alike come from different tables or passages of the source. Some results are limits rather than exact numbers.

This note sets out measurements from patent US11352322B2, “Cyclopropyl-amide compounds as dual LSD1/HDAC inhibitors” (Jubilant Epicore LLC, priority 2016, dated 2022).

Chain of HDAC6 human recombinant enzyme (Q9UBN7 whole entry): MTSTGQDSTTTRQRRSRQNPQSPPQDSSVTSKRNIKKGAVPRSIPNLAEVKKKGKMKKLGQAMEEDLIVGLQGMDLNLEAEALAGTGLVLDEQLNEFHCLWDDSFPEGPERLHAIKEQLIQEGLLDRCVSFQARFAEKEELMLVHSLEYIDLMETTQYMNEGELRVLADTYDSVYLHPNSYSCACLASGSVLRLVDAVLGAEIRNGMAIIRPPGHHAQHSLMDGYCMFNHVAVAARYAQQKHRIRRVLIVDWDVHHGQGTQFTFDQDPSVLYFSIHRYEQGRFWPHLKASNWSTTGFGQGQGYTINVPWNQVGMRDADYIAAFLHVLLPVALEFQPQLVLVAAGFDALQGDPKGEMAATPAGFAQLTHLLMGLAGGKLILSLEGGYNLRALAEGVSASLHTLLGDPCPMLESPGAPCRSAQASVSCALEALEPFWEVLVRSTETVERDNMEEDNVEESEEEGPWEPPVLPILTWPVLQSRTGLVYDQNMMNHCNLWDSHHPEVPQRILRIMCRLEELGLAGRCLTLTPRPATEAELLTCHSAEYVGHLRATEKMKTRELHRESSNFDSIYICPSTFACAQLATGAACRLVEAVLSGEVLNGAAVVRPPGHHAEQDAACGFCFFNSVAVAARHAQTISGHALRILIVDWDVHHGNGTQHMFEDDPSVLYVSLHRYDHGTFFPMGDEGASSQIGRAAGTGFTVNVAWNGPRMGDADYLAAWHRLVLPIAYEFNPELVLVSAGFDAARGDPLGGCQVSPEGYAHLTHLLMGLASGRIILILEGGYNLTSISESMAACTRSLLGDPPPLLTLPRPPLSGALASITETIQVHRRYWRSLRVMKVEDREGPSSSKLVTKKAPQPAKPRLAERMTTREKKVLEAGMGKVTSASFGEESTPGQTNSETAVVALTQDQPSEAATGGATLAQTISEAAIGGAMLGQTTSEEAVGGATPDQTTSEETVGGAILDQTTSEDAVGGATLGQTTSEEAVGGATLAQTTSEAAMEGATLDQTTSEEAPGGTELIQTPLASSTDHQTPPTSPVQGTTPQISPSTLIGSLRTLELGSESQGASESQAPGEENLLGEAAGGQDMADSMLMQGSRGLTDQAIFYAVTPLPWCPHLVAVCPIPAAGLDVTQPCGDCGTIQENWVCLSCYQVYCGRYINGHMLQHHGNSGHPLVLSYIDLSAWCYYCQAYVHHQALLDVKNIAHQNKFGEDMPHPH
Protocol for LSD1: TR-FRET Assay for LSD1 (Perkin Elmer)
Tranylcypromine (TCP), LSD1 inhibitor was procured from Selleckchem. […] Stop Solution containing 300 μM tranylcypromine in 1× LANCE Detection Buffer was added to the wells and incubated for 5 min at RT. Then, Detection mix containing 2 nM Eu-Ab and 50 nM ULight-Streptavidin in 1× LANCE Detection Buffer was prepared and added to the reaction mix. This mixture was incubated for 1 hour at room temperature.

With `Nc1ccccc1NC(=O)c1ccc(CN2CCC(CN[C@@H]3C[C@H]3c3ccccc3)CC2)cc1` [Example 140, N-(2-aminophenyl)-4-((4-((((1R,2S)-2-phenylcyclopropyl)amino)methyl)piperidin-1-yl)methyl)benzamide TFA Salt], the results for the IC50 (in series [1]; at LSD1) were greater than 10000 nM and 2 nM, respectively. The EC50 (in general, the concentration giving half of the maximal effect) with MM1S is 2 nM. For the same compound, the “Metabolic stability HLM % remaining in 30 min” value in series [2] amounted to 85%. Further, the “Metabolic stability MLM % remaining in 30 min” value in series [3] is listed as 83%.
`CN(C)CCNC(=O)c1ccc(C2CC2NCC2CCN(CCCc3ccc(C(=O)NO)cc3)CC2)cc1` (stereo not shown) [Example 55, N-(2-(dimethylamino)ethyl)-4-(2-(((1-(3-(4-(hydroxycarbamoyl)phenyl)propyl)piperidin-4-yl)methyl)amino)cyclopropyl)benzamide TFA Salt]: the IC50 (commonly the concentration at which inhibition is half-maximal) in series [1] amounted to 130 nM; at LSD1, 22 nM. Also, in series [2], the “Metabolic stability HLM % remaining in 30 min” value turned out to be 40%. In series [3], the “Metabolic stability MLM % remaining in 30 min” value came to 36%.
As for `Nc1ccccc1NC(=O)c1ccc(CCC(=O)N2CCC(NC3CC3c3ccccc3)CC2)cc1` (stereo not shown) [Example 133, N-(2-aminophenyl)-4-(3-oxo-3-(4-((2-phenylcyclopropyl)amino)piperidin-1-yl)propyl)benzamide TFA Salt], the IC50 in series [1] is greater than 10000 nM; on LSD1 it was 40 nM. Besides, the “Metabolic stability HLM % remaining in 30 min” value in series [2] was found to be 19%. Besides, the “Metabolic stability MLM % remaining in 30 min” value in series [3] is 9%.
Turning to `Cn1ccc(-c2ccc(C3CC3NCC3CCN(CCCc4ccc(C(=O)NO)cc4)CC3)cc2)cc1=O` (stereo not shown) [Example 60, N-hydroxy-4-(3-(4-(((2-(4-(1-methyl-2-oxo-1,2-dihydropyridin-4-yl)phenyl)cyclopropyl)amino)methyl)piperidin-1-yl)propyl)benzamide TFA Salt], the IC50 in series [1] is 46 nM; at LSD1 it was 21 nM. Moreover, the “Metabolic stability HLM % remaining in 30 min” value in series [2] is given as 73%. Moreover, the “Metabolic stability MLM % remaining in 30 min” value in series [3] was found to be 72%.
In the case of `O=C(NO)c1ccc(CCCn2cc(CNC3CC3c3ccccc3)nn2)cc1` (stereo not shown) [Example 77, N-hydroxy-4-(3-(4-(((2-phenylcyclopropyl)amino)methyl)-1H-1,2,3-triazol-1-yl)propyl)benzamide TFA Salt], the IC50 in series [1] was 71 nM; at LSD1 it was 65 nM. Also, the EC50 with MM1S (MM1S cells) turned out to be 70 nM.
In the same order, the values of `Nc1ccccc1NC(=O)c1ccc(CCCn2cc(CNC3CC3c3ccccc3)nn2)cc1` (stereo not shown) [Example 137, N-(2-aminophenyl)-4-(3-(4-(((2-phenylcyclopropyl)amino)methyl)-1H-1,2,3-triazol-1-yl)propyl)benzamide TFA Salt] are greater than 10000 nM, 139 nM and 126 nM.
`O=C(NO)c1cnc(N2CCC(CNC3CC3c3ccc(-c4ccc(F)cc4)cc3)CC2)nc1` (stereo not shown) [Example 15, 2-(4-(((2-(4′-fluoro-[1,1′-biphenyl]-4-yl)cyclopropyl)amino)methyl)piperidin-1-yl)-N-hydroxypyrimidine-5-carboxamide TFA Salt]: the IC50 is 134 nM in series [1] and 95 nM at LSD1. The concentration giving a half-maximal response (EC50) in the series with MM1S (MM1S cells) is 12 nM.
As to `Nc1ccccc1NC(=O)c1ccc(S(=O)(=O)N2CCC(CNC3CC3c3ccccc3)CC2)cc1` (stereo not shown) [Example 160, N-(2-aminophenyl)-4-((4-(((2-phenylcyclopropyl)amino)methyl)piperidin-1-yl)sulfonyl)benzamide TFA Salt], the IC50 in series [1] is greater than 10000 nM; on LSD1, 43 nM. Besides, the concentration for a half-maximal effect (EC50) with MM1S (MM1S cells) worked out at 178 nM.
The corresponding values for `O=C(NO)c1ccc(CCCC2CCN(C(=O)CNC3CC3c3ccccc3)CC2)cc1` (stereo not shown) [Example 93, N-hydroxy-4-(3-(1-(2-((2-phenylcyclopropyl)amino)acetyl)piperidin-4-yl)propyl)benzamide TFA Salt] are 187 nM, 72 nM and 1040 nM.
For the compound `O=C(NO)c1ccc(OCCN2CCC(CNC3CC3c3ccccc3)CC2)nc1` (stereo not shown) [Example 97, N-hydroxy-6-(2-(4-(((2-phenylcyclopropyl)amino)methyl)piperidin-1-yl)ethoxy)nicotinamide TFA Salt], the values for the 50% inhibitory concentration (IC50) (in series [1]; on LSD1) were greater than 10000 nM and 33 nM, respectively. For the same compound, the EC50 with MM1S (MM1S cells) was greater than 10000 nM.
`Nc1ccccc1NC(=O)c1ccc(Cn2cc(CNC3CC3c3ccccc3)nn2)cc1` (stereo not shown) [Example 146, N-(2-aminophenyl)-4-((4-(((2-phenylcyclopropyl)amino)methyl)-1H-1,2,3-triazol-1-yl)methyl)benzamide TFA Salt]: the results for the IC50 (in series [1]; on LSD1) were greater than 10000 nM and 69 nM, respectively. Also, in the series with MM1S (MM1S cells), the EC50 was found to be 106 nM.
In the same order, the values of `CC(C)n1cc(C2CC2NCC2CCN(CCCc3ccc(C(=O)Nc4ccccc4N)cc3)CC2)cn1` (stereo not shown) [Example 128, N-(2-aminophenyl)-4-(3-(4-(((2-(1-isopropyl-1H-pyrazol-4-yl)cyclopropyl)amino)methyl)piperidin-1-yl)propyl)benzamide TFA Salt] are greater than 10000 nM, 128 nM and 70 nM.
In the same order, the values of `Nc1ccccc1NC(=O)c1coc(CCCN2CCC(CNC3CC3c3ccccc3)CC2)n1` (stereo not shown) [Example 153, N-(2-aminophenyl)-2-(3-(4-(((2-phenylcyclopropyl)amino)methyl)piperidin-1-yl)propyl)oxazole-4-carboxamide TFA Salt] are greater than 10000 nM, 24 nM and 571 nM.
In the case of `O=C(NO)c1ccc(S(=O)(=O)N2CCC(CNC3CC3c3ccccc3)CC2)cc1` (stereo not shown) [Example 85, N-hydroxy-4-((4-(((2-phenylcyclopropyl)amino)methyl)piperidin-1-yl)sulfonyl)benzamide TFA Salt], the IC50 is 575 nM in series [1] and 62 nM on LSD1. For the same compound, in the series with MM1S (MM1S cells), the EC50 was greater than 10000 nM.
Consider `O=C(NO)c1ccc(OCCN2CCC(CNC3CC3c3ccc(-c4ccc(F)cc4)cc3)CC2)nc1` (stereo not shown) [Example 98, 6-(2-(4-(((2-(4′-fluoro-[1,1′-biphenyl]-4-yl)cyclopropyl)amino)methyl)piperidin-1-yl)ethoxy)-N-hydroxynicotinamide TFA Salt], for which the half-inhibitory concentration (IC50) in series [1] turned out to be 5960 nM; at LSD1, 37 nM. Besides, in the series on MM1S (MM1S cells), the EC50 was greater than 10000 nM.
In the case of `O=C(NO)c1cnc(CCCN2CCC(CNC3CC3c3ccccc3)CC2)s1` (stereo not shown) [Example 112, N-hydroxy-2-(3-(4-(((2-phenylcyclopropyl)amino)methyl)piperidin-1-yl)propyl)thiazole-5-carboxamide TFA Salt], the values for the concentration for half-maximal inhibition (IC50) (in series [1]; at LSD1) were 517 nM and 22 nM, respectively. For the same compound, the EC50 in the series with MM1S (MM1S cells) amounted to 63 nM.
For the compound `Cn1cc(-c2ccc(C3CC3NCC3CCN(Cc4ccc(C(=O)NO)cc4)CC3)cc2)ccc1=O` (stereo not shown) [Example 35, N-hydroxy-4-((4-(((2-(4-(1-methyl-6-oxo-1,6-dihydropyridin-3-yl)phenyl)cyclopropyl)amino)methyl)piperidin-1-yl)methyl)benzamide TFA Salt], the half-maximal inhibitory concentration (IC50) in series [1] was 199 nM; on LSD1 it was 34 nM. Besides, the concentration giving a half-maximal response (EC50) in the series on MM1S (MM1S cells) turned out to be 1430 nM.
Turning to `O=C(NO)c1ccc(CCCN2CCC(CNC3CC3c3ccc(-c4ccc(C(F)(F)F)nc4)cc3)CC2)cc1` (stereo not shown) [Example 66, N-hydroxy-4-(3-(4-(((2-(4-(6-(trifluoromethyl)pyridin-3-yl)phenyl)cyclopropyl)amino)methyl)piperidin-1-yl)propyl)benzamide TFA Salt], the IC50 in series [1] stood at 100 nM; on LSD1, 19 nM. Besides, in series [2], the “Metabolic stability HLM % remaining in 30 min” value is listed as 79%. Also, the “Metabolic stability MLM % remaining in 30 min” value in series [3] was found to be 85%.
As to `O=C(NO)c1ccc(CCCn2cnc(CNC3CC3c3ccccc3)c2)cc1` (stereo not shown) [Example 75, N-hydroxy-4-(3-(4-(((2-phenylcyclopropyl)amino)methyl)-1H-imidazol-1-yl)propyl) benzamide TFA Salt], the IC50 in series [1] was 365 nM; on LSD1, 286 nM. For the same compound, the EC50 with MM1S (MM1S cells) was determined as 246 nM.
In the case of `O=C(NO)c1ccc(CCN2CCC(CNC3CC3c3ccccc3)CC2)cc1` (stereo not shown) [Example 42, N-hydroxy-4-(2-(4-(((2-phenylcyclopropyl)amino)methyl)piperidin-1-yl)ethyl)benzamide TFA Salt], the IC50 is 490 nM in series [1] and 15 nM on LSD1. For the same compound, the EC50 in the series on MM1S (MM1S cells) came out at 190 nM.
In the same order, the values of `CC(C)n1cc(C2CC2NCC2CCN(CCCc3ccc(C(=O)NO)cc3)CC2)cn1` (stereo not shown) [Example 67, N-hydroxy-4-(3-(4-(((2-(1-isopropyl-1H-pyrazol-4-yl)cyclopropyl)amino)methyl)piperidin-1-yl)propyl)benzamide TFA Salt] are 272 nM, 484 nM and 70 nM.
Regarding `Nc1ccccc1NC(=O)c1ccc(Cn2cc(CNC3CC3c3ccccc3)cn2)cc1` (stereo not shown) [Example 145, N-(2-aminophenyl)-4-((4-(((2-phenylcyclopropyl)amino)methyl)-1H-pyrazol-1-yl)methyl)benzamide TFA Salt], the concentration for half-maximal inhibition (IC50) in series [1] is greater than 10000 nM; at LSD1 it was 61 nM. In the series on MM1S (MM1S cells), the EC50 is 123 nM.
Regarding `O=C(NO)c1cccc(CNC2CC2c2ccccc2)c1` (stereo not shown) [Example 27, N-hydroxy-3-(((2-phenylcyclopropyl)amino)methyl)benzamide TFA], the figures for the IC50 (in series [1]; at LSD1) were greater than 1000 nM and 16 nM, respectively. The “Metabolic stability HLM % remaining in 30 min” value in series [2] was 75%. Further, the “Metabolic stability MLM % remaining in 30 min” value in series [3] is given as 51%.
On to `O=C(NO)c1ccc2c(c1)CN(C(=O)CCCN1CCC(CNC3CC3c3ccccc3)CC1)C2` (stereo not shown) [Example 109, N-hydroxy-2-(4-(4-(((2-phenylcyclopropyl)amino)methyl)piperidin-1-yl)butanoyl)isoindoline-5-carboxamide TFA Salt], for which the figures for the IC50 (in series [1]; at LSD1) were 107 nM and 24 nM, respectively. In addition, in the series on MM1S (MM1S cells), the EC50 turned out to be 1100 nM.
